The source of these data is ChEMBL document CHEMBL6074715, “Discovery of pyridine-based derivatives as FLT3 inhibitors for the treatment of acute myeloid leukemia” (Eur J Med Chem, 2025).

Each structure is given as a SMILES string.

This data set is described as follows: Tmax in Sprague-Dawley rat at 5 mg/kg, iv measured upto 48 hrs by LC-MS/MS analysis. Particulars: in vivo. The data set is classed as ADME, organism-based.

Regarding `O=C(Nc1ccc(Oc2ccnc(NC(=O)N3CC(O)C3)c2)c(F)c1)c1cn(-c2cccnc2)nn1`, the Tmax turned out to be 1.8 min.
